The results in this text go back to paper PMC11855086, “Synthesis, Antimicrobial Activity, and Tyrosinase Inhibition by Multifunctional 3,4-Dihydroxy-Phenyl Peptidomimetics” (International Journal of Molecular Sciences, 2025).

In assay [1] the test system is A. baumannii (ATCC 17978). Description: MIC and MBC, microtiter plate technique. It is filed as cell-based. To be noted: ATCC17978, Acinetobacter baumannii; for MIC: 24 h, resazurin; for MBC: TTC. A general note: Resazurin is reduced to fluorescent resorufin, in cell work by metabolically active cells.
Another assay has as its system E. cloacae (ATCC 49141). The assay is described as follows: MIC and MBC, microtiter plate technique. It is filed as cell-based. Conditions: ATCC49141, Enterobacter cloacae; for MIC: 24 h, resazurin; for MBC: TTC.
The subject of the next assay is S. aureus (ATCC 23235). The assay is described as follows: microbe, parasite or virus in culture. It is filed as cell-based. Conditions: Staphylococcus aureus; for MBC: ATCC23235; for MIC: ATCC23235, 24 h.
The subject of the next assay is E. coli R3 (ATCC 11775). Description: MIC and MBC, microtiter plate technique. Conditions: Escherichia coli; for MIC: ATCC11775, 24 h, resazurin; for MBC: ATCC11775, TTC. It is filed as cell-based.
In a further assay the test system is E. coli R2 (ATCC 39544). Description: MIC and MBC, microtiter plate technique. In kind it is cell-based. To be noted: Escherichia coli; for MBC: ATCC39544; for MIC: ATCC39544, 24 h.
Assay [2] has as its system P. aeruginosa (ATCC 15442). The assay is described as follows: MIC and MBC, microtiter plate technique. It is filed as cell-based. Conditions: ATCC15442, Pseudomonas aeruginosa; for MIC: 24 h, resazurin; for MBC: TTC.
Another assay has as its system E. coli R4 (ATCC 39543). The assay is described as follows: MIC and MBC, microtiter plate technique. To be noted: Escherichia coli; for MBC: ATCC39543; for MIC: ATCC39543, 24 h. It is filed as cell-based.
In a further assay the test system is E. coli K12 (ATCC 25404). The assay is described as follows: MIC and MBC, microtiter plate technique. In kind it is cell-based. To be noted: Escherichia coli; for MBC: ATCC25404; for MIC: ATCC25404, 24 h.
The target of assay [3] is T1, mushroom tyrosinase (mTYR) (Agaricus bisporus, UniProt C7FF04).
T1 construct: purchased Sigma-Aldrich (Poznan, Poland); host or cells: Agaricus bisporus (extracted natural enzyme)
The assay is described as follows: Tyrosinase assay with L-DOPA as substrate (absorbance at 475 nm). Conditions: 100 µM compound. In kind it is biochemical. From the text:
Tyrosinase (Tyr) extracted from Agaricus bisporus (mushroom tyrosinase, mTYR) is commonly used as a model enzyme for human Tyr due to its high purity, stability, and commercial availability. It is frequently used in the selection of TYR inhibitors. Following established literature protocols, L-tyrosine and L-DOPA, which serve as substrates for monophenol and diphenol oxidation, respectively, were used to assess the tyrosinase inhibitory activity of synthesized target compounds [21].
Tyrosinase (Tyr) activity was measured using L-DOPA as substrate and phosphate buffer solution (PBS) as blank control, following the method described by Min He et al. (2022) with an ultraviolet spectrophotometer (Carry-300, Agilent Life Sciences and Chemical Analysis, Santa Clara, CA, USA). […] Before the experiment, 2.9 mL of PBS and 0.1 mL of DMSO were used to account for the influence of the background solvent. The inhibitor solution (100 µL), substrate solution (2.8 mL), and Tyr solution (100 µL) were then added to a quartz colorimetric cuvette. After a one-minute mixing period, the absorption spectra of the mixture were continuously recorded at 475 nm using the UV spectrophotometer (Carry-300) for 5 min over a period of every 30 s. The tyrosinase inhibition rate was calculated as follows:Relative enzyme activity (%) = (A1 − A2)/A1 × 100
A1 = Absorbance of L-DOPA and inhibitor.
A2 = Absorbance of L-DOPA, inhibitor, and tyrosinase.

Values after ≈ are worked out from the molar mass of the structure shown.

T1 sequence (C7FF04 1-392 limits assumed): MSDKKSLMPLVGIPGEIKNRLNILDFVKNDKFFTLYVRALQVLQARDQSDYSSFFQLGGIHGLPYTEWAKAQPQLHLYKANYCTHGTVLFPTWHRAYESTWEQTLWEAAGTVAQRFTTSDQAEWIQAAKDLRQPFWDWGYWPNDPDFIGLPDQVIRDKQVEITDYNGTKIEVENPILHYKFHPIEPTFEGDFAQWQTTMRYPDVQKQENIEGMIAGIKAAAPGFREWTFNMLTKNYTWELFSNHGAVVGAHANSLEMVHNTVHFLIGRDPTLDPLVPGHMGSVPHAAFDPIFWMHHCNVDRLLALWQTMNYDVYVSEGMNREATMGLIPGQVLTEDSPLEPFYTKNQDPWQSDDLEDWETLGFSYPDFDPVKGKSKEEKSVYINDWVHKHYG

Regarding `COc1ccc(CNC(=O)C(c2ccc(O)c(O)c2)N(Cc2ccc(OC)cc2)C(C)=O)cc1` (stereo not drawn) [Compound 5k, 2-(3,4-dihydroxyphenyl)-N-(4-methoxybenzyl)-2-(N-(4-methoxybenzyl)acetamido)-acetamide], the MIC in assay [1] turned out to be 0.93 µM (≈ 0.432 µg/mL); against E. cloacae (ATCC 49141), 1.14 µM (≈ 0.53 µg/mL); in the assay on S. aureus (ATCC 23235) it was 1.18 µM (≈ 0.548 µg/mL); against E. coli R3 (ATCC 11775) it was 2.13 µM (≈ 0.989 µg/mL); in the assay on E. coli R2 (ATCC 39544), 1.27 µM (≈ 0.59 µg/mL); in [2], 1.15 µM (≈ 0.534 µg/mL). The MIC turned out to be 2.55 µM (≈ 1.18 µg/mL) in the assay with E. coli R4 (ATCC 39543) and 0.58 µM (≈ 0.269 µg/mL) in the assay on E. coli K12 (ATCC 25404). For the same compound, the MBC came to 1 µM (≈ 0.465 µg/mL) in assay [1]; 1.26 µM (≈ 0.585 µg/mL) with E. cloacae (ATCC 49141); 1.18 µM (≈ 0.548 µg/mL) in the assay with S. aureus (ATCC 23235); 2.58 µM (≈ 1.2 µg/mL) in the assay on E. coli R3 (ATCC 11775); 1.27 µM (≈ 0.59 µg/mL) in the assay with E. coli R2 (ATCC 39544); 1.21 µM (≈ 0.562 µg/mL) in assay [2]. The MBC against E. coli R4 (ATCC 39543) was determined as 2.82 µM (≈ 1.31 µg/mL); in the assay with E. coli K12 (ATCC 25404), 0.79 µM (≈ 0.367 µg/mL).
As for `COc1ccc(CN(C(C)=O)C(C(=O)NCc2ccc(F)cc2)c2ccc(O)c(O)c2)cc1` (stereo not drawn) [Compound 5l, 2-(3,4-dihydroxyphenyl)-N-(4-fluorobenzyl)-2-(N-(4-methoxybenzyl)acetamido)-acetamide], the MIC in assay [1] stood at 1 µM (≈ 0.452 µg/mL); against E. cloacae (ATCC 49141), 1.23 µM (≈ 0.557 µg/mL); in the assay with S. aureus (ATCC 23235), 1.27 µM (≈ 0.575 µg/mL); in the assay on E. coli R3 (ATCC 11775), 1.64 µM (≈ 0.742 µg/mL); in the assay with E. coli R2 (ATCC 39544) it was 1.17 µM (≈ 0.529 µg/mL); in assay [2], 1.23 µM (≈ 0.557 µg/mL). Moreover, the MIC was 2.61 µM (≈ 1.18 µg/mL) against E. coli R4 (ATCC 39543) and 0.64 µM (≈ 0.29 µg/mL) in the assay with E. coli K12 (ATCC 25404). Further, the MBC was 1.03 µM (≈ 0.466 µg/mL) in assay [1]; 1.27 µM (≈ 0.575 µg/mL) in the assay with E. cloacae (ATCC 49141); 1.28 µM (≈ 0.579 µg/mL) with S. aureus (ATCC 23235); 2.62 µM (≈ 1.19 µg/mL) in the assay with E. coli R3 (ATCC 11775); 1.21 µM (≈ 0.548 µg/mL) in the assay with E. coli R2 (ATCC 39544); 1.26 µM (≈ 0.57 µg/mL) in assay [2]. The MBC in the assay on E. coli R4 (ATCC 39543) was 2.76 µM (≈ 1.25 µg/mL); against E. coli K12 (ATCC 25404), 0.77 µM (≈ 0.348 µg/mL).
A word on the inhibition: it is how much of the control response was suppressed. As to `O=C(NCc1ccc(F)cc1)C(c1ccc(O)c(O)c1)N(C(=O)Cc1ccccc1)C1CCCCC1` (stereo not drawn) [Compound 5f], the MIC in [1] turned out to be 0.68 µM (≈ 0.334 µg/mL); in the assay with E. cloacae (ATCC 49141), 0.68 µM (≈ 0.334 µg/mL); in the assay with S. aureus (ATCC 23235), 0.68 µM (≈ 0.334 µg/mL); against E. coli R3 (ATCC 11775) it was 0.83 µM (≈ 0.407 µg/mL); in the assay with E. coli R2 (ATCC 39544) it was 0.65 µM (≈ 0.319 µg/mL); in assay [2], 0.64 µM (≈ 0.314 µg/mL). Besides, the MIC in the assay on E. coli R4 (ATCC 39543) is 1.28 µM (≈ 0.628 µg/mL); against E. coli K12 (ATCC 25404), 0.22 µM (≈ 0.108 µg/mL). Also, the MBC in assay [1] came to 0.71 µM (≈ 0.348 µg/mL); with E. cloacae (ATCC 49141), 0.73 µM (≈ 0.358 µg/mL); with S. aureus (ATCC 23235) it was 0.71 µM (≈ 0.348 µg/mL); in the assay with E. coli R3 (ATCC 11775), 1.18 µM (≈ 0.579 µg/mL); in the assay on E. coli R2 (ATCC 39544) it was 0.75 µM (≈ 0.368 µg/mL); in assay [2] it was 0.69 µM (≈ 0.338 µg/mL). Besides, the MBC stood at 1.3 µM (≈ 0.638 µg/mL) with E. coli R4 (ATCC 39543) and 0.61 µM (≈ 0.299 µg/mL) in the assay with E. coli K12 (ATCC 25404). The inhibition at 100 µM in [3] was less than 10%.
As to `COc1ccc(CN(C(C)=O)C(C(=O)NCc2ccccc2)c2ccc(O)c(O)c2)cc1` (stereo not drawn) [Compound 5j, N-benzyl-2-(3,4-dihydroxyphenyl)-2-(N-(4-methoxybenzyl)acetamido)acetamide], the MIC in assay [1] was 0.8 µM (≈ 0.348 µg/mL); in the assay with E. cloacae (ATCC 49141), 0.76 µM (≈ 0.33 µg/mL); in the assay on S. aureus (ATCC 23235) it was 0.78 µM (≈ 0.339 µg/mL); in the assay with E. coli R3 (ATCC 11775), 1.08 µM (≈ 0.469 µg/mL); in the assay with E. coli R2 (ATCC 39544), 0.74 µM (≈ 0.322 µg/mL); in [2] it was 0.77 µM (≈ 0.335 µg/mL). Also, the MIC against E. coli R4 (ATCC 39543) worked out at 1.22 µM (≈ 0.53 µg/mL); in the assay on E. coli K12 (ATCC 25404) it was 0.26 µM (≈ 0.113 µg/mL). Moreover, the MBC in assay [1] stood at 0.85 µM (≈ 0.369 µg/mL); against E. cloacae (ATCC 49141), 0.81 µM (≈ 0.352 µg/mL); in the assay on S. aureus (ATCC 23235), 0.74 µM (≈ 0.322 µg/mL); in the assay on E. coli R3 (ATCC 11775), 1.28 µM (≈ 0.556 µg/mL); in the assay on E. coli R2 (ATCC 39544), 1.19 µM (≈ 0.517 µg/mL); in [2], 0.82 µM (≈ 0.356 µg/mL). Besides, the MBC with E. coli R4 (ATCC 39543) came to 1.47 µM (≈ 0.639 µg/mL); against E. coli K12 (ATCC 25404) it was 0.82 µM (≈ 0.356 µg/mL).
Consider `COc1ccc(CNC(=O)C(c2ccc(O)c(O)c2)N(C(=O)Cc2ccccc2)C2CCCCC2)cc1` (stereo not drawn) [Compound 5e], for which the MIC in [1] stood at 0.72 µM (≈ 0.362 µg/mL); in the assay on E. cloacae (ATCC 49141), 0.64 µM (≈ 0.322 µg/mL); in the assay on S. aureus (ATCC 23235) it was 0.67 µM (≈ 0.337 µg/mL); against E. coli R3 (ATCC 11775) it was 0.89 µM (≈ 0.447 µg/mL); against E. coli R2 (ATCC 39544) it was 0.71 µM (≈ 0.357 µg/mL); in assay [2], 0.67 µM (≈ 0.337 µg/mL). In addition, the MIC in the assay on E. coli R4 (ATCC 39543) stood at 1.37 µM (≈ 0.689 µg/mL); against E. coli K12 (ATCC 25404) it was 0.3 µM (≈ 0.151 µg/mL). The MBC in assay [1] came to 0.75 µM (≈ 0.377 µg/mL); in the assay on E. cloacae (ATCC 49141) it was 0.7 µM (≈ 0.352 µg/mL); in the assay with S. aureus (ATCC 23235), 0.69 µM (≈ 0.347 µg/mL); with E. coli R3 (ATCC 11775) it was 1.15 µM (≈ 0.578 µg/mL); with E. coli R2 (ATCC 39544), 0.89 µM (≈ 0.447 µg/mL); in assay [2], 0.69 µM (≈ 0.347 µg/mL). Moreover, the MBC stood at 1.29 µM (≈ 0.648 µg/mL) in the assay with E. coli R4 (ATCC 39543) and 0.87 µM (≈ 0.437 µg/mL) in the assay with E. coli K12 (ATCC 25404).
